# Test system: MC38 cells
# Assay: Matrigel invasion assay
# Format: cell-based, mouse
# Conditions: low doses, 24 hours
# Experimental: FIG. 24A: MC38 cells were subjected to invasion assays using BioCoat Matrigel transwells in the presence of the indicated concentrations of AP-4-139B. 24 hours later, cells were fixed and stained with Crystal Violet. Shown are representative images taken from 8 random fields of view per well. Scale bar=100 μm. FIG. 24B: Quantification of FIG. 24A *** p<0.001. FIG. 24C: Schematic representation of the metastasis assay. 4×10^5 MC38 cells were injected into the tail vein of 8-10 week old male C57Bl/6 mice. Mice were treated with i.p. injection of 10 mg/kg AP-4-139B every 48 hours. After 3 weeks, the lungs of mice were formalin fixed and H&E stained, and assessed for the presence of metastatic nodules. FIG. 24D: Representative images of lung metastases (black arrows) from C57Bl/6 mice injected with MC38 cells in the tail vein, followed by treatment with vehicle or AP-4-139B. Scale bar=250 μm. FIG. 24E: Quantification of FIG. 24D. n=5 mice per group. * p<0.05.
# Matrigel invasion assays were carried out using 24-well Corning® BioCoat™ Matrigel Invasion Chambers with an 8.0 μm PET membrane (#354480). Transwells were first rehydrated with serum free DMEM for 2 hours at 37° C. […] Number of invaded cells per field (n=8 random fields of view per transwell) were quantified with ImageJSoftware (NIH), normalized to live cells, and expressed as mean±SEM.
smiles,measurement,value
"c1ccc(-c2cn3nc(CCCCCC[P+](c4ccccc4)(c4ccccc4)c4ccccc4)sc3n2)cc1 [AP-4-139B, Triphenyl(6-(6-phenylimidazo[2,1-b][1,3,4]thiadiazol-2-yl)hexyl)phosphonium bromide]",tumor cell migration and invasion,sufficient to inhibit tumor cell migration and invasion

# Reference: patent publication US12616753B2, “HSP70 inhibitors and methods of using same” (THE WISTAR INSTITUTE, priority 2020, dated 2026)
